For orientation: LD50 means the dose at which mortality reaches 50%.

The source of these data is US20030104079A1, “Skin tissue regeneration promoters comprising ginsenoside Rb1” (Japan Science and Technology Corporation, Japan, priority 2000, published 2003).

One series has as its system open wound of skin. The experiment in a line: Open wound healing by intravenous preinfusion before punch biopsy. The class given is in vivo, Wistar rats. The procedure:
Then, we (the present inventors) have examined whether intravenous administration of ginsenoside Rb1 before preparation of open wound of skin can promote regeneration and/or reconstruction of the skin tissue. For that purpose, ginsenoside Rb1 (12 μg) dissolved in physiological saline was intravenously administered once into male Wistar rats (body weight about 300 g), under inhalation anesthesia, subsequently, continuous intravenous infusion of ginsenoside Rb1 (12 μg/day) was conducted for 4 days by using an Alza osmotic minipump. Thereafter, the punch biopsy with diameter 6 mm was performed in the dorsal skin region of animals under inhalation anesthesia to make open wound, and simultaneously, ginsenoside Rb1 was continuously infused intravenously for 3 days.
An equal amount of physiological saline was administered intravenously in the control animals, for which the same open wound was prepared to leave the animals as they were.
On day 2 after finishing continuous intravenous administration of ginsenoside Rb1 or physiological saline (i.e. on day 5 after preparation of the open wound), the animals were anesthetized with pentobarbital and fixed transcardially with perfusion of 0.1 M phosphate buffer containing 4% paraformaldehyde. Thereafter, the skin tissue including the open wound was dissected out, post-fixed and embedded in paraffin according to the conventional method. Paraffin sections 5 μm thick were cut and stained with hematoxylin-eosin (HE). FIG. 3 is a photograph in place of drawing. […] “i” indicates incrustation or eschar, “ep” indicates stratified squamous epithelium of epidermis, and “by” indicates blood vessel.
Intravenous administration of physiological saline solution containing ginsenoside Rb1 (12 μg) was conducted once in male Wistar rats weighing about 300 g under inhalation anesthesia, subsequently, ginsenoside Rb1 was continuously infused intravenously for 4 days through an Alza osmotic minipump at a dose of 12 μg/day. […]

For series [1] the following is noted: intraperitoneally administered; Kaku et al. 1975; cited from earlier work.
The subject of series [2] is permanent occlusion of the cortical branch of the middle cerebral artery. The settings on record: infused into the cerebroventricles of cerebral infarcted rats; cited from earlier work.
In another series the test system is cerebral infarct lesion. Set-up: therapeutic effect for cerebral apoplexy and cerebral infarction: dose or concentration left out as unconfirmed. The settings on record: cited from earlier work.
Series [3] deals with morsus of human oral mucosa. The experiment in a line: Therapy of morsus of human oral mucosa by external application. In kind it is in vivo. As to conditions: propet containing 0.00001% by weight. The source says:
Next, one of the present inventors had confirmed by themself whether or not propet containing low concentration of ginsenoside Rb1 was effective to morsus of mouth or oral mucosa. On May 2nd, 2000, at about 2:00 p.m. after dental treatment, […] had started to have late lunch before waking up from infiltration anesthesia of the left third branch of the trigeminal nerve and periodontal anesthesia due to heavy hunger. They had bitten themself three times their own left lip mucosa and since they felt iron taste (blood) in their oral cavity, as a result of confirmation of their morsus by a mirror, they found at least five regions of erosion or defect of mouth or oral mucosa, further hematocele or hematoma was found at one spot. Since they concluded that if it (i.e. morsus of oral mucosa) was allowed to leave as it is, aphthous stomatitis would be complicated within several days to require a week to ten days for complete cure, propet containing a low concentration (0.00001% by weight) of ginsenoside Rb1, which had been confirmed to show effectiveness and efficacy by animal experiments of the present inventors, was applied with small amount to the five regions with erosion or defect of oral mucosa and one hematocele or hematoma region. External or topical application was performed before and after meal and before and after eating between meals. The external or topical application was performed after tooth brushing was performed as much as possible after the meal. Namely, propet containing 0.00001% by weight of ginsenoside Rb1 was applied externally or topically onto morsus regions of the labial mucosa separately 6-10 times a day. FIG. 7 is a photograph in place of drawing.
Next, one of inventors of the present invention (Sakanaka) had bitten again left lower labial mucosa on May 26, 2000 during lunch, and propet containing 0.00001% by weight of ginsenoside Rb1 was applied topically or externally onto the morsus region. A photograph just after morsus is shown in left of FIG. 8, and a photograph at 72 hours after morsus is shown in right of FIG. 8.
Next, one of the present inventors had confirmed by themself whether propet containing low concentrations of ginsenoside Rb1 was effective for morsus of mouth mucosa or not. On May 2nd, 2000, at about 2:00 p.m. after dental treatment, […] had started to have late lunch before awakening from infiltration anesthesia of the left third division of the trigeminal nerve and periodontal anesthesia due to heavy hunger. They had bitten themself three times their own left lip mucosa and they felt iron taste (blood) in their oral cavity. As a result of confirmation of their morsus by a mirror, they found at least five regions of erosion or defect of mouth mucosa, further hematoma was found at one spot. Since they concluded that if the morsus was allowed to leave as it was, aphthous stomatitis would be developed as a complication to require a week to ten days for complete cure, a small amount of propet containing a low concentration (0.00001% by weight) of ginsenoside Rb1, which had been confirmed to show effectiveness and efficacy by animal experiments of the present inventors, was topically or externally applied to the five regions with erosion or defect of oral mucosa and to one hematoma region. External or topical application was performed before and after meal and before and after eating between meals. […]

As for `CC(C)=CCC[C@](C)(O[C@@H]1O[C@H](CO[C@@H]2O[C@H](CO)[C@@H](O)[C@H](O)[C@H]2O)[C@@H](O)[C@H](O)[C@H]1O)[C@H]1CC[C@]2(C)[C@@H]1[C@H](O)C[C@@H]1[C@@]3(C)CC[C@H](O[C@@H]4O[C@H](CO)[C@@H](O)[C@H](O)[C@H]4O[C@@H]4O[C@H](CO)[C@@H](O)[C@H](O)[C@H]4O)C(C)(C)[C@@H]3CC[C@]12C` [ginsenoside Rb1], the “regeneration, generation and reconstruction of ruptured and excised blood vessels (FIG. 3)” value with open wound of skin (12 μg/day iv 4 days before and 3 days after open wound, day 5 after open wound) was “facilitated”. Besides, the “regeneration and reconstruction of skin tissue (FIG. 3)” value with open wound of skin (12 μg/day iv 4 days before and 3 days after open wound, day 5 after open wound, vs physiological saline) was “regeneration and reconstruction of skin tissue were obviously promoted”. For the same compound, the “effect on healthy tissues, ginsenoside Rb1-administered vs physiological saline-administered case” value in the series with open wound of skin (continuous intravenous administration of low dosages) is listed as “no clear difference was observed”. Further, the LD50 in series [1] is given as 1110 mg/kg. Moreover, the “cerebral infarction and place navigation disability” value in series [2] is “cerebral infarction-reducting effect and place navigation disability-improving effect were observed”. In addition, the “therapeutic effect for cerebral infarction and cerebral apoplexy” value in the series with cerebral infarct lesion (continuous intravenous administration 6 μg/day) is “superior therapeutic effect”. Besides, in the series on cerebral infarct lesion (continuous intravenous administration), the “therapeutic effect for cerebral apoplexy and cerebral infarction” value was “superior therapeutic effect”. The “volume of cerebral infarct lesion” value in the series with cerebral infarct lesion (intravenous continuous administration of low dosages, JP Appln. No. Hei 10-365560) is reported as “about ¼”. In series [3], the “pain in the wounded regions” value is reported as “markedly reduced”. Also, the “epithelization of morsus regions of labial mucosa (FIG. 7)” value in series [3] (6-10 times a day, 96 hours after morsus, one person) is listed as “almost complete epithelization”. The “complication of aphthous stomatitis after morsus” value in series [3] (first case) is given as “no complication of aphthous stomatitis was observed”. Moreover, in series [3] (second case, 72 hours after morsus), the “cure of morsus (FIG. 8)” value is given as “rapidly cured without developing aphthous stomatitis as a complication”. The “time in which morsus (wound) healing is markedly promoted” value in series [3] (such morsus usually requires at least 7 to 10 days) was ≤ 96 h.
